This is an account of results in PMC3715397 (Bioorganic & medicinal chemistry, 2013).

Entries after “also recorded” stand apart in the source; their conditions may differ.

The target in one experiment is M. ramosa APAH (Mycoplana ramosa, UniProt Q48935). As to the kind of experiment: Fluorimetric APAH inhibition assay.
M. ramosa APAH, sequence (Q48935 whole entry): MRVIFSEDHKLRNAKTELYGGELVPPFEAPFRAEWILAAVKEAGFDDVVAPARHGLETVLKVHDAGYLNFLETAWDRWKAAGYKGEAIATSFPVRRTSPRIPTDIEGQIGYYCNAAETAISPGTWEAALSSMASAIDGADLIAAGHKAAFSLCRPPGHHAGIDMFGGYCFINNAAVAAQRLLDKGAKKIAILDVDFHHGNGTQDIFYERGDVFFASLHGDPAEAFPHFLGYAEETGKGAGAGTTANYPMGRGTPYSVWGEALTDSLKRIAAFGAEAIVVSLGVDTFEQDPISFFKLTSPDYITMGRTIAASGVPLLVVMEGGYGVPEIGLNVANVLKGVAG
Details: not given
Type of experiment: biochemical.
The term IC50 denotes the concentration that inhibits the measured activity by half. With `Cl.Cl.NCCCNCCCCCC(=O)C(F)(F)F` [IV, 7-[(3-aminopropyl)amino]-1,1,1-trifluoroheptan-2-one dihydrochloride], the IC50 was 38 µM.
On the same count and under the same terms, as for `CC(=O)SCC(=O)CCCCCNCCCN.Cl.Cl` [V, 7-{[(3-aminopropyl)amino]-2-oxoheptyl} thioacetate dihydrochloride], the figure is 4000 µM.

The experiment is the same for the next values; noted with them: qualitative range stated in text.
As for `Cl.Cl.NCCCNCCCCCC(=O)O` [I, 6-[(3-aminopropyl)amino]hexanoic acid dihydrochloride], the “Inhibitory potency against APAH, IC50 range in words” value (“Inhibitory potency against APAH” for short) was “millimolar range”.
On the same count and under the same terms, the same measure for `CC(=O)CCCCCNCCCN.Cl.Cl` [II, 7-[(3-aminopropyl)amino]heptan-2-one dihydrochloride]: “mid-micromolar range”; for `Cl.Cl.NCCCNCCCCCC(=O)NO` [III, 6-[(3-aminopropyl)amino]-N-hydroxyhexanamide dihydrochloride]: “nanomolar range; also recorded: nanomolar inhibitory potency”.
Consider `Cl.Cl.NCCCNCCCCCC(=O)C(F)(F)F` [IV, 7-[(3-aminopropyl)amino]-1,1,1-trifluoroheptan-2-one dihydrochloride], for which the “Inhibitory potency against APAH” value is “nanomolar range; also recorded: nanomolar inhibitory potency”.
In the case of `CS(=O)(=O)CCCCCNCCCN.Cl.Cl` [IX, N^1-[5-(methylsulfonyl)pentyl]propane-1,3-diamine dihydrochloride], the “Inhibitory potency against APAH” value was “millimolar range”.
Regarding `CC(=O)SCC(=O)CCCCCNCCCN.Cl.Cl` [V, 7-{[(3-aminopropyl)amino]-2-oxoheptyl} thioacetate dihydrochloride], the “Inhibitory potency against APAH” value is “mid-micromolar range”.
As for `COCC(=O)CCCCCNCCCN.Cl.Cl` [VI, 7-[(3-aminopropyl)amino]-1-methoxyheptan-2-one dihydrochloride], the “Inhibitory potency against APAH” value is “mid-micromolar range”.
With `CC(=O)SCCCCCNCCCN.Cl.Cl` [VII, S-{5-[(3-aminopropyl)amino]pentyl} thioacetate dihydrochloride], the “Inhibitory potency against APAH” value is recorded as “millimolar range”.
Same read-out and setting: the same measure for `Cl.Cl.NCCCNCCCCCS` [VIII, 5-[(3-aminopropyl)amino]pentane-1-thiol dihydrochloride]: “mid-micromolar range”.
In the case of `Cl.Cl.NCCCNCCCCCB(O)O` [X, 5-[(3-aminopropyl)amino]pentylboronic acid dihydrochloride], the “Inhibitory potency against APAH” value is given as “mid-micromolar range”.
